Test results published in patent publication US8142829B2, “Beverage composition and method of reducing degradation of monatin” (PepsiCo, Inc., priority 2008, dated 2012).
Each block holds one molecule with its values, some of them ahead of it.

What was measured:
Assay type in all cases: physicochemical
[1] = UV exposure of bottled monatin beverage, Atlas CI 5000 with Xenon arc lamp, 24 hours at 86° F.
Procedure: (§1) The following illustrates specific embodiments of the present invention (i.e., embodiments using EMIQ) but are not intended to limit it. All percentages are by weight unless otherwise stated. Heat treatment of bottled beverage was conducted in a thermostatically controlled oven. UV exposure of bottled beverage was conducted within an Atlas CI 5000 with Xenon arc lamp in a thermostatically controlled oven.
Additional analyses of the lemon/lime (“L/L”) flavored beverages above were conducted to determine formation of lactone (reversible) or lactam (irreversible) from monatin.
UV exposure of bottled beverage was conducted within an Atlas CI 5000 with Xenon arc lamp in a thermostatically controlled oven.

[2] = Monatin stabilization / degradation observations in beverage, conditions not stated; conditions: for monatin stabilization ability (rank order): rank by number of hydroxyl groups on the aryl ring
[3] = Heat treatment of bottled monatin beverage in thermostatically controlled oven, one week at 110° F.
Procedure: as §1
Additional analyses of the lemon/lime (“L/L”) flavored beverages above were conducted to determine formation of lactone (reversible) or lactam (irreversible) from monatin. The accumulation of the two degradation products would reduce sweetness impact over time and reduce consumer acceptance of a product containing a beverage comprising monatin. […] The amounts of ascorbic acid (where indicated) was 333 ppm, and the amount of EMIQ (where indicated) was 7.50 ppm (50 uL of 15% EMIQ as San-Melin AO-3000=7.5 ppm).

Lactam formation ([1]; Cola CSD, 24 h UV exposure, 30 ppm myricitrin, 100 ppm EMIQ, 300 ppm ascorbic acid or none): 2.9 ppm
Monatin + lactone ([1]; L/L CSD, 24 h UV exposure, 30 ppm myricitrin, 100 ppm EMIQ, 300 ppm ascorbic acid or none): 37.7 ppm
Color Hue Change, UV 24 hours @ 86° F. ([1]; Lemon/Lime Carbonated Soft Drink, 265 ppm sodium benzoate, 333 ppm ascorbic acid where indicated, 30 ppm CaNa2EDTA, 50 ppm monatin, Yes* = pink to rust color develops): No
Color Hue Change, 1 week @ 110° F. ([3]; Lemon/Lime Carbonated Soft Drink, 265 ppm sodium benzoate, 333 ppm ascorbic acid where indicated, 30 ppm CaNa2EDTA, 50 ppm monatin): No
formation of lactam from monatin ([3]; low pH matrix, heat stress conditions): not ascorbic acid
Structure (SMILES): O=C1O[C@H]([C@@H](O)CO)C(O)=C1O [ascorbic acid]
protection against pink coloration and off-flavor development ([1]; 24 h of UV exposure): protects against pink coloration and off-flavor development
formation of lactam and color hue change with ascorbic acid ([2]; non-colored carbonated soft drink): results in the formation of lactam, a degradation product of monatin, and an undesirable color hue change

Structure (SMILES): O=C(O)/C=C/c1ccc(O)c(O)c1 [caffeic acid]
monatin stabilization ability (rank order) [2]: caffeic acid (2 hydroxyl groups)>ferulic acid>coumaric acid>cinnamic acid (no hydroxyl groups)

Structure (SMILES): O=C(O)/C=C/c1ccc(O)cc1 [coumaric acid]
monatin stabilization ability (rank order) [2]: caffeic acid (2 hydroxyl groups)>ferulic acid>coumaric acid>cinnamic acid (no hydroxyl groups)

Structure (SMILES): O=C(O)C=Cc1ccccc1 [cinnamic acid]
monatin stabilization ability (rank order) [2]: caffeic acid (2 hydroxyl groups)>ferulic acid>coumaric acid>cinnamic acid (no hydroxyl groups)

Structure (SMILES): COc1cc(/C=C/C(=O)O)ccc1O [ferulic acid]
monatin stabilization ability (rank order) [2]: caffeic acid (2 hydroxyl groups)>ferulic acid>coumaric acid>cinnamic acid (no hydroxyl groups)
